# Laboratory results as given in patent publication US11903944B1, “Experimental model using pazopanib-induced cardiotoxicity” (KING FAISAL UNIVERSITY, priority 2023, dated 2024).
# Tests used:
# Type in all cases: in vivo, Male Sprague Dawley rats
# [1] = Electrocardiogram (ECG) recording for arrhythmia identification, experimental animal model for arrhythmia; details: 100 mg/kg orally single dose, after 3 hours
# Description: (§1) This experimental protocol was permitted by the Institutional Animal Care and Use Committee of King Faisal University. All the experiments were executed in harmony with the relevant procedures and regulations of the Ethical Conduct for the Use of Animals in Research at King Faisal University. Male Sprague Dawley rats weighing 150-200 g were purchased and accommodated in polypropylene cages and upheld at 27±2° C. under a 12 h light/dark sequence. Rats were kept and observed for 1 week in the animal house. The animals were fed with standard rat feed and allowed water ad libitum.
# (§2) Animals were distributed into 5 groups, each group containing 6 rats (n=6). Group 1 is the control group in which animals were injected with normal saline intraperitoneally (IP). Group 2: The animals were treated with Pazopanib 30 mg/kg twice daily orally for 14 days to induce hypertension. This group represents the “Experimental animal model for hypertension.” Group 3: The animals were treated with Pazopanib 100 mg/kg orally as a single dose. This group represents the “Experimental animal model for arrhythmia.” Group 4: The animals were treated with Pazopanib 300 mg/kg/day orally for 21 days. This group represents the “Experimental animal model for Cardiac toxicity (oral)” Group 5: The animals were treated with Pazopanib 21 mg/kg/day intraperitoneally (IP) for 30 days. This group represents the “Experimental animal model for Cardiac toxicity (IP)”
# At the end of the experiments, urethane-anaesthetized rats (1.5 g/kg) were placed in a prone position on a board, and an ECG was continuously recorded using noninvasive computerized ECG apparatus from Kent Scientific (Torrington, CT, USA). Heart rate, ST segment, P wave, QT, P-R and R-R intervals, and QRS complex were calculated from ECG recordings electronically.
# (§3) Data were expressed as mean±standard error of the mean (SEM) for six animals (n=6) in each group. Statistically significant differences between the groups were determined using one-way ANOVA followed by Tukey's test as a post-hoc analysis. In all cases, probability values of p<0.05 were taken as statistically significant.
# [2] = system: Toll-Like Receptors 4 (TLR4) gene expressions; assay: TLR4 gene expression in cardiac tissue by real-time quantitative PCR
# Description: as §1
# Animals were distributed into 5 groups, each group containing 6 rats (n=6). Group 1 is the control group in which animals were injected with normal saline intraperitoneally (IP). Group 2: The animals were treated with Pazopanib 30 mg/kg twice daily orally for 14 days to induce hypertension. This group represents the “Experimental animal model for hypertension.” Group 3: The animals were treated with Pazopanib 100 mg/kg orally as a single dose. […] This group represents the “Experimental animal model for Cardiac toxicity (IP)”
# Blood samples were collected, and centrifuged (10 min/4000 rpm) to separate serum which was then stored in a −80° C. for biochemical analysis. […]
# Total RNA was extracted from the cardiac tissue samples according to the Trizol kit instructions. […] The TLR4 primer (5′-[…]-3′ (SEQ ID NO: 1), 3′-[…]-5′ (SEQ ID NO: 2)), TLR2 (5′-[…]-3′ (SEQ ID NO: 3), 3′-[…]-5′ (SEQ ID NO: 4)), MYD88 (5′-[…]-3′ (SEQ ID NO: 5), 3′-[…]-5′ (SEQ ID NO: 6)) were used to detect and quantify related genes in the cDNA using Real-time quantitative PCR. In a 25 μL reaction volume, PCR was performed as follows: initial denaturation for 4 min at 94° C., followed by denaturation for 30 s at 94° C., annealing for 30 s at 62° C., and extension for 2 min at 72° C. for 35 cycles, and final extension for 10 min at 72° C. qPCR was applied using SYBR ExScript RT-PCR kit, and quantification examinations were accomplished via an Opticon-2 Real-time PCR reactor (MJ Research, Capital Court, Reno, NV, USA). qPCR results were obtained using Step PE Applied Biosystems (Waltham, MA, USA) software. Relative gene expression data were calculated using the (2-ΔΔCq2) method and presented as a fold change. Target gene expressions were assessed and related to the internal reference β-actin gene using the primer (5′-ATCCTGCGTCTGGACCTGG-3′ (SEQ ID NO: 7), 5′-[…]-3′ (SEQ ID NO: 8)), and the results were presented in the figures as relative expressions.
# (§4) Data were expressed as mean±standard error of the mean (SEM) for six animals (n=6) in each group. Statistically significant differences between the groups were determined using one-way ANOVA followed by Tukey's test as a post-hoc analysis. […]
# [3] = Cardiac toxicity identification: serum cardiac marker levels by ELISA; details: compared with normal rats, p<0.05
# Description: as §1
# Animals were distributed into 5 groups, each group containing 6 rats (n=6). Group 1 is the control group in which animals were injected with normal saline intraperitoneally (IP). Group 2: The animals were treated with Pazopanib 30 mg/kg twice daily orally for 14 days to induce hypertension. This group represents the “Experimental animal model for hypertension.” Group 3: The animals were treated with Pazopanib 100 mg/kg orally as a single dose. This group represents the “Experimental animal model for arrhythmia.” Group 4: The animals were treated with Pazopanib 300 mg/kg/day orally for 21 days. […] This group represents the “Experimental animal model for Cardiac toxicity (IP)”
# Blood samples were collected, and centrifuged (10 min/4000 rpm) to separate serum which was then stored in a −80° C. for biochemical analysis. Thereafter, the anaesthetized animals were sacrificed, and the hearts of different investigational groups were separated, and stored in a −80° C. for subsequent biochemical parameters determination.
# ELISA kits, following the manufacturer's instructions, were used to measure serum cardiac marker levels of CPK, CK-MB, cTnT, cTnI and LDH.
# as §3
# [4] = Blood pressure recording, noninvasive tail-cuff system, experimental animal model for hypertension; details: 30 mg/kg twice daily orally for 14 days; compared to normal animals
# Description: as §1, §2
# Blood pressure measurements were performed using a noninvasive computerized tail-cuff system from Emka Technologies' Systems (Paris, France), which involved placing a cuff on the animal's tail to occlude the blood flow. The pressure was raised and then slowly released. The cuff pressure when the pulse signal reappears is intended as the systolic pressure. […]
# as §4
# [5] = 30 mg/kg/day intraperitoneally (IP) for 21 days
# [6] = 300 mg/kg/day orally for 21 days
smiles,measurement,setting,value
Cc1ccc(Nc2nccc(N(C)c3ccc4c(C)n(C)nc4c3)n2)cc1S(N)(=O)=O [Pazopanib],P-R interval,[1],shortening
same,R-R interval,[1],shortening
same,p wave duration,[1],shortening
same,QRS interval (QRS complex duration),"[1]; compared to control, p<0.05",prolongation
same,QT interval,"[1]; compared to control, p<0.05",prolongation
same,ST segment amplitude,"[1]; compared to control, p<0.05",elevation
same,TLR4 gene expression,[2]; arrhythmia model: 100 mg/kg orally as a single dose,significantly increased
same,TLR4 gene expression,[2]; cardiotoxicity model: 30 mg/kg/day intraperitoneally (IP) for 30 days,significantly increased
same,TLR4 gene expression,[2]; cardiotoxicity model: 300 mg/kg/day orally for 30 days,significantly increased
same,TLR4 gene expression,[2]; hypertension model: 30 mg/kg twice daily orally for 14 days,significantly increased
same,serum cardiac troponin I (cTnI),[3]; [5],augmented
same,serum cardiac troponin T (cTnT),[3]; [5],augmented
same,serum creatine kinase-myocardial bound (CK-MB),[3]; [5],augmented
same,serum creatine phosphokinase (CPK),[3]; [5],augmented
same,serum lactate dehydrogenase (LDH),[3]; [5],augmented
same,serum cardiac troponin I (cTnI),[3]; [6],augmented
same,serum cardiac troponin T (cTnT),[3]; [6],augmented
same,serum creatine kinase-myocardial bound (CK-MB),[3]; [6],augmented
same,serum creatine phosphokinase (CPK),[3]; [6],augmented
same,serum lactate dehydrogenase (LDH),[3]; [6],augmented
same,diastolic blood pressure,[4],elevated
same,mean blood pressure,[4],elevated
same,systolic blood pressure,[4],elevated
